pIC50: −log10 of the molar value. Where two headings read alike, the source gives them in different places.
Assays:
primary rat hepatocytes = experiment: Inhibition of lipid synthesis ([1-14C]-acetate incorporation) in primary cultures of rat hepatocytes; assay type: cell-based; details: Hepatocyte, 4 h incubation with [1-14C]-acetate
Method: Compounds were tested for inhibition of lipid synthesis in primary cultures of rat hepatocytes. Male Sprague-Dawley rats were anesthetized with intraperitoneal injection of sodium pentobarbital (80 mg/kg). Rat hepatocytes were isolated essentially as described by the method of Seglen (Seglen, P. O. Hepatocyte suspensions and cultures as tools in experimental carcinogenesis. J. Toxicol. Environ. Health 1979, 5, 551-560). Hepatocytes were suspended in Dulbecco's Modified Eagles Medium containing 25 mM D-glucose, 14 mM HEPES, 5 mM L-glutamine, 5 mM leucine, 5 mM alanine, 10 mM lactate, 1 mM pyruvate, 0.2% bovine serum albumin, 17.4 mM non-essential amino acids, 20% fetal bovine serum, […] and 20 μg/mL gentamycin) and plated at a density of 1.5×10^5 cells/cm^2 on collagen-coated 96-well plates. Four hours after plating, media was replaced with the same media without serum. Cells were grown overnight to allow formation of monolayer cultures. Lipid synthesis incubation conditions were initially assessed to ensure the linearity of [1-^14C]-acetate incorporation into hepatocyte lipids for up to 4 hours. Hepatocyte lipid synthesis inhibitory activity was assessed during incubations in the presence of 0.25 μCi [1-^14C]-acetate/well (final radiospecific activity in assay is 1 Ci/mol) and 0, 1, 3, 10, 30, 100 or 300 μM of compounds for 4 hours. At the end of the 4-hour incubation period, medium was discarded and cells were washed twice with ice-cold phosphate buffered saline and stored frozen prior to analysis. To determine total lipid synthesis, 170 μl of MicroScint-E® and 50 μl water was added to each well to extract and partition the lipid soluble products to the upper organic phase containing the scintillant. Lipid radioactivity was assessed by scintillation spectroscopy in a Packard TopCount NXT.

female obese Zucker rats = experiment: Serum lipid and glycemic control variables in chow-fed obese female Zucker rats, daily oral gavage for two weeks; assay type: in vivo, rat; details: Rattus norvegicus; for change in vivo at 100 mg/kg: 100 mg/kg daily oral; for change in vivo at 30 mg/kg: 30 mg/kg daily oral
Method: Ten- to twelve-week old (400-500 grams) female Zucker fatty rats Cr1: (Zuc)-faBR were obtained from Charles River Laboratories. Animals were acclimated to the laboratory environment for seven days. During the acclimation and study period, animals were housed by group in shoebox polycarbonate cages on Cellu-Dri bedding. The temperature and humidity in the animals' quarters (68-78° F.; 30-75% RH) were monitored and the airflow in the room was sufficient to provide several exchanges per hour with 100% fresh filtered air. An automatic timing device provided an alternating 12-hour cycle of light and dark. Rats received pelleted Purina Laboratory Rodent Chow® (5001) prior to and during the drug intervention period except for a 6-hour phase prior to blood sampling. Fresh water was supplied ad libitum via an automatic watering system. Compounds were dissolved, suspended by mixing in a dosing vehicle consisting of 1.5% carboxymethylcellulose/0.2% Tween 20 or 20% ethanol and 80% polyethylene glycol-200 [v/v]. Dose volume of vehicle or vehicle plus each compound was set at 0.25% of body weight in order to deliver the appropriate dose. Doses were administered daily by oral gavage, approximately between 8-10 AM. Regarding blood sampling, animals were fasted for 6 hours prior to all blood collections. Prior to and after 7 days of dosing, a 1.0- to 2.0-mL sample of blood was collected by administering O2/CO2 anesthesia and bleeding from the orbital venous plexus. Following 14 days of dosing, blood was collected by cardiac puncture after euthanasia with CO2. All blood samples were processed for separation of serum and stored at −80° C. until analysis. Commercially available kits were used to determine serum triglycerides (Roche Diagnostic Corporation, Kit No. 148899 or Boehringer Mannheim, Kit No. 1488872), total cholesterol (Roche Diagnostic Corporation, Kit No. 450061), non-esterified fatty acids (Wako Chemicals, Kit No. 994-75409) and β-hydroxybutyrate (Wako Chemicals, Kit No. 417-73501 or Sigma Kit. No. 310-0) on a Hitachi 912 Automatic Analyzer (Roche Diagnostic Corporation). In some instances, an in-house cholesterol reagent was used to determine total serum cholesterol levels. Serum lipoprotein cholesterol levels were determined by lipoprotein profile analysis. Lipoprotein profiles were analyzed using gel-filtration chromatography on a Superose 6HR (1×30 cm) column equipped with on-line detection of total cholesterol as described by Kieft et al (Kieft, K. A.; Bocan, T. M.; Krause, B. R. Rapid on-line determination of cholesterol distribution among plasma lipoproteins after high-performance gel filtration chromatography. J. Lipid Res. 1991, 32, 859-866.). The total cholesterol content of each lipoprotein was calculated by multiplying the independent values determined for serum total cholesterol by the percent area of each lipoprotein in the profile. The percent body weight gain and the ratio of liver to body weight is also determined. Selected data are shown as absolute values or as a percent change of the pretreatment values in Tables 8 and 9.
Select compounds (214c, 210c, and 210g) were further evalutated in the Zucker rat by performing a full dose response and measuring additional scrum variables including markers for diabetes (Tables 10-12).

[1] = Table 7, ranges: confidence of estimate insufficient to assign a value
[2] = 168 h, 1 wk, Table 9, read-out: HDL-Cholesterol, Percent Change from Pre-Treatment
[3] = 168 h, 1 wk, Table 9, read-out: NonHDL-Cholesterol, Percent Change from Pre-Treatment
[4] = 168 h, 1 wk, Table 9, read-out: TG, Percent Change from Pre-Treatment
[5] = 336 h, 2 wk, Table 9, read-out: HDL-Cholesterol, Percent Change from Pre-Treatment
[6] = 336 h, 2 wk, Table 9, read-out: NonHDL-Cholesterol, Percent Change from Pre-Treatment
[7] = 336 h, 2 wk, Table 9, read-out: TG, Percent Change from Pre-Treatment

SMILES	melting point [°C]	pIC50 (primary rat hepatocytes; [1])	change in vivo at 30 mg/kg (female obese Zucker rats; [2]) [%]	change in vivo at 30 mg/kg (female obese Zucker rats; [3]) [%]	change in vivo at 30 mg/kg (female obese Zucker rats; [4]) [%]	change in vivo at 30 mg/kg (female obese Zucker rats; [5]) [%]	change in vivo at 30 mg/kg (female obese Zucker rats; [6]) [%]	change in vivo at 30 mg/kg (female obese Zucker rats; [7]) [%]	also measured
CC(C)(CCCCCCCC(=O)CCCCCCCC(C)(C)C(=O)O)C(=O)O [Compound 107n, 10-Oxo-2,2,18,18-tetramethyl-nonadecanedioic acid]	74 to 77								pIC50 (primary rat hepatocytes; Table 6): 5.00; change in vivo at 100 mg/kg (female obese Zucker rats; 168 h, 1 wk, 100% = 2-fold increase, Table 8, read-out: HDL-Cholesterol, Percent Change from Pre-Treatment): 44%; change in vivo at 100 mg/kg (female obese Zucker rats; 168 h, 1 wk, 100% = 2-fold increase, Table 8, read-out: NonHDL-Cholesterol, Percent Change from Pre-Treatment): -80%; change in vivo at 100 mg/kg (female obese Zucker rats; 168 h, 1 wk, 100% = 2-fold increase, Table 8, read-out: TG, Percent Change from Pre-Treatment): -85%; change in vivo at 100 mg/kg (female obese Zucker rats; 336 h, 2 wk, 100% = 2-fold increase, Table 8, read-out: HDL-Cholesterol, Percent Change from Pre-Treatment): 86%; change in vivo at 100 mg/kg (female obese Zucker rats; 336 h, 2 wk, 100% = 2-fold increase, Table 8, read-out: NonHDL-Cholesterol, Percent Change from Pre-Treatment): -45%; change in vivo at 100 mg/kg (female obese Zucker rats; 336 h, 2 wk, 100% = 2-fold increase, Table 8, read-out: TG, Percent Change from Pre-Treatment): -64%
Cc1ccc(C(C)(CCCCC(=O)CCCCC(C)(C(=O)O)c2ccc(C)cc2)C(=O)O)cc1 (centres unmarked) [Compound 210e, 2,12-Dimethyl-7-oxo-2,12-di-p-tolyltridecanedioic acid]	48 to 50	3.52 to 4.00	0	0	-11	10	47	12	
CC(C)(CCCCC(=O)CCCC(C)(C)C(=O)O)C(=O)O [Compound 225, 2,2,11,11-Tetramethyl-6-oxododecanedioc acid]	72 to 73	5.10	7	-17	-2	4	92	-22	
CC(C)(CCCCCC(=O)CCCCC(C)(C)C(=O)O)C(=O)O [Compound 226, 2,2,13,13-Tetramethyl-7-oxotetradecanedioc acid]	61 to 62	5.52							change in vivo at 100 mg/kg (female obese Zucker rats; [2]): 240%; change in vivo at 100 mg/kg (female obese Zucker rats; [3]): -30%; change in vivo at 100 mg/kg (female obese Zucker rats; [4]): -65%; change in vivo at 100 mg/kg (female obese Zucker rats; [5]): 72%; change in vivo at 100 mg/kg (female obese Zucker rats; [6]): -51%; change in vivo at 100 mg/kg (female obese Zucker rats; [7]): -62%
